Data published in patent publication US20230150951A1, “2,5- OR 2,6-DISUBSTITUTED HYDROQUINONE DERIVATIVES WITH AT LEAST ONE CARBOXY, SULFO OR AMIDO GROUP USEFUL AS MEDICAMENTS” (OM PHARMA SA, priority 2020, published 2023).

Legend:
human primary cells = experiment: BioMap Plus phenotypic profiling in human primary cell-based systems; conditions: 30, 10, 3.3, 1.1 μM
Experimental: A series of in vitro assays was performed using human primary cell-based assays modeling complex tissue and disease biology of organs (vasculature, immune system, skin, lung) and general tissue biology for phenotypic profiling of compounds in conditions that preserve crosstalk and feedback mechanisms relevant to in vivo outcomes.

[1] = test system: DBA/2 mouse strain with STZ induction of diabetes; experiment: STZ-induced diabetic retinopathy and nephropathy model in DBA/2 mice; format: in vivo; conditions: one and two weeks, FIG. 9
Experimental: Therapeutic efficacy of the compounds according to the present invention was assessed using diabetic mouse model using the DBA/2 mouse strain with STZ induction of diabetes and follow diabetic retinopathy including kidney damage. Five weeks after induction of diabetes via low dose STZ injection for 5 consecutive days, the urinary albumin:Cr ratio is […] compared to 36.9 for age-matched controls.
For treatment of diabetic nephropathy, DBA/2 mice were induced with STZ (low dose for 5 consecutive days).
Treatment was performed for four weeks (IV dosing) with weekly assessment of blood glucose and urine albumin/creatinine levels. At the end of the treatment period animals, the following samples were taken: • Blood for measurement of glucose and Blood Urea Nitrogen (BUN) • Blood for measurement of serum creatinine • Urine for final albumin/creatinine ratio. • Kidney was resected and FFPE: Picro-Sirius Red, Masson's Trichrome and H&E staining was carried out to identify areas of fibrosis, along with evidence of Mesangial sclerosis, Arteriolar hyalinosis, Glomerular Basal Membrane (GBM) thickening
To assess compound effect on diabetic retinopathy, animals had weekly images taken via Fundus Camera. Immediately prior to sacrifice, animals were injected with FITC-dextran via tail vein. During sampling, the eyes were sampled and fixed in formalin. Retinal Flatmounts were prepared and examined fluorescently looking at compound effects on vascularity and leakiness of vessels (indicted by high background staining).

[2] = test system: thioglycolate-induced peritonitis; experiment: Thioglycolate-induced peritonitis murine model; format: in vivo, C57BL/6J mice; conditions: 50 mg/kg i.p. 1 h prior to thioglycolate
Experimental: Therapeutic efficacy of the compounds of the present invention was assessed using thioglycolate-induced peritonitis murine models as described by Cook A D et al. (J Immunol. 2003; 171(9):4816-4823) and Tsai J M et al. (Blood Adv. 2019; 3(18):2713-2721. doi: 10.1182/bloodadvances.2018024026).
C57BL/6J mice were injected intraperitoneally (i.p.) with 1 mL of compounds at 50 mg/kg 1 h prior to the induction of peritonitis. Peritonitis was then induced with 1 ml of sterile thioglycolate broth 4% (wt/vol) or PBS as control. After 3 h, mice were anesthetized by i.p. injection with a solution of PBS containing 5 mg/ml ketamine and 1 mg/ml xylazine and peritoneal cavities were washed with 5 ml ice-cold sterile Ca2+/Mg2+-free HBSS 1×containing EDTA 2 mM. Peritoneal exudate cells (PECs) were centrifuged at 1200 rpm for 5 min at 4° C. and red cells lysed. PECs were washed, resuspended in PBS 10% FBS, incubated with anti-CD16/CD32 and mIgG FcR blockers and then stained with fluorescently conjugated antibodies to characterize migrated leukocytes (anti-CD45, anti-CD11b, anti-Ly6G, anti-CD8a, anti-CD4, anti-CD3). Cell viability was measured by 7-AAD exclusion. Specimens were acquired by flow cytometry using MACSQuant Analyzer (Miltenyi Biotec) and analysed using FlowJo software.
Animals: four C57BL/6J mice per group for each compound versus four vehicle treated mice.
Read out was done 1 h after thioglycolate injection.
Readout method: flow cytometry to characterise migrated leukocytes using anti-CD45, anti-CD11b, anti-Ly6G, anti-CD8a, anti-CD4, anti-CD3.
Results and statistical analysis: Results were analysed using FlowJo software. Data were shown as mean±SEM. Two-tailed Student's t test using a significance level of 0.05 is used for the statistical analysis.

ARPE-19 cells = experiment: Outer blood retinal barrier: ARPE-19 monolayer permeability to FITC-dextran; format: cell-based, human; conditions: for p < 0.05 (ARPE19 permeability versus diabetic milieu): IL-β, after 90 min
Source text: The mechanisms of actions involved in the anti-permeability effect of the tested treatments were explored by assessing permeability to fluorescent dextran and proinflammatory cytokines production using their mRNA expression levels by RT-PCR.
Outer Blood Retinal Barrier conditions: human retinal pigment epithelial cells (RPE) cultures ARPE-19, a spontaneously immortalised human RPE cell line were obtained from American Type Culture Collection (Manassas, Va., USA). ARPE-19 cells and they were cultured in euglycaemic conditions (D-glucose (D-Glc), 5.5 mmol/L) and hyperglycaemic conditions (D-glucose, 25 mmol/L) for 18 days at 37° C. under 5% (vol./vol.) CO2 in medium (DMEM/F12) supplemented with 10% (vol./vol.) FBS (Hyclone; Thermo Fisher Scientific, UT, USA) and 1% (vol./vol.) penicillin/streptomycin (Hyclone; Thermo Fisher Scientific). ARPE-19 cells from passage 20 were used and the medium changed every 3-4 days. For permeability studies, ARPE-19 cells were seeded at 400,000 cells/ml (80,000 RPE cells/well) in 0.33 cm^2 HTS-Transwells (Costar; Corning, N.Y., USA). For real-time PCR, western blot analysis and immunofluorescence cells are seeded at 20,000 cells/ml.
Experimental conditions and treatments: apart from the euglycemic condition, eighteen different conditions were tested in cells cultured under 25 mmol/L D-glucose:
Condition 2) Cells are treated with diabetic milieu 25 mM D-Glucose+vehicle (days 15, 16 and 17 at one application/day) in order to evaluate their effect in preventing the cell damage provoked by the diabetic milieu.
Condition 9) Cells were treated with 25 mM D-Glucose and bevacizumab (0.2 mg/ml) for 72 h (days 15, 16 and 17 at one application/day) to evaluate their potential cytotoxic effects.
Condition 10)=Diabetic milieu; cells were treated with 25 mM D-Glucose+[…] (10 ng/ml)+TNF-α (25 ng/ml)+VEGF (25 ng/ml), for 48 h (days 16 and 17 at one application/day) in order to provoke the disruption of the monolayer.
Condition 17) Cells are treated with diabetic milieu (25 mM D-Glucose+IL-1β (10 ng/ml)+TNF-α (25 ng/ml)+VEGF (25 ng/ml))+bevacizumab (0.2 mg/mL) (days 15, 16 and 17 at one application/day) in order to evaluate their effect in preventing the cell damage provoked by the diabetic milieu.
Measurement of ARPE-19 permeability: The permeability of RPE cells was determined at 18 days by measuring the apical-to basolateral movements of FITC-dextran (40 kDa) (Sigma, St Louis, […]., USA) following a procedure previously reported by Villarroel et al. Exp Eye Res, 2009, 89, 913-920.

[3] = No 3-5: 25 mM D-Gluc + compound 25 μg/mL
[4] = No 6-8: 25 mM D-Gluc + compound 50 μg/mL + VEGF, TNF-α, (so in the source)
[5] = No 11-13: 25 mM D-Gluc + compound 25 μg/mL + VEGF, TNF-α, (diabetic milieu)
[6] = No 11-13: compound 25 μg/mL + VEGF, TNF-α
[7] = No 14-16: 25 mM D-Gluc + compound 50 μg/mL + VEGF, TNF-α, (diabetic milieu)

| SMILES | Antiproliferative effects on human primary cells (human primary cells) | Cytotoxicity in BioMap Plus (human primary cells) | Immunomodulatory activities (human primary cells) | Inflammation-related activities (human primary cells) | Number of annotated readouts (human primary cells) | Tissue remodeling activities (human primary cells) | Blood glucose level [1] | % of reduction, CD4+ lymphocytes, treated over vehicle treated mice [2] | % of reduction, CD8+ lymphocytes, treated over vehicle treated mice [2] | % of reduction, Leukocytes (CD45+ cells), treated over vehicle treated mice [2] | % of reduction, PMNs (CD11b-Ly6G double + cells), treated over vehicle treated mice [2] | % permeability ARPE19 (ARPE-19 cells; [3]) | % permeability ARPE19 (ARPE-19 cells; [4]) | % permeability ARPE19 (ARPE-19 cells; [5]) | p < 0.05 (ARPE19 permeability versus diabetic milieu) (ARPE-19 cells; [6]) | % permeability ARPE19 (ARPE-19 cells; [7]) | also measured |
| --- | --- | --- | --- | --- | --- | --- | --- | --- | --- | --- | --- | --- | --- | --- | --- | --- | --- |
| O=C(O)c1cc(O)c(CN(Cc2cc(O)c(C(=O)O)cc2O)Cc2cc(O)c(C(=O)O)cc2O)cc1O [IIIc-061a, Tris(4-carboxy-2,5-dihydroxyphenylmethyl)amine] | did not have any antiproliferative effects | not cytotoxic | decreased sIL-17A | decreased I-TAC, MIG | six | decreased Collagen I, Collagen III, PAI-1 | significantly reduced | 42.9% | 33.3% | −2.4% | −8.3% |  |  |  |  |  |  |
| O=C(O)c1cc(O)cc(CS(=O)(=O)Cc2cc(O)cc(C(=O)O)c2O)c1O [IVc-059a, 3-((2,5-Dihydroxy-3-carboxyphenyl)methylsulfonylmethyl)-2,5-dihydroxybenzoic acid] | antiproliferative to human primary endothelial cells (1.1 μM) | not cytotoxic | decreased sIL-10, sIL-2 | decreased sTNFα | three |  | significantly reduced | 6.0% | 23.0% | 4.0% | −13.0% | 70.2 ± 8.8% | 112.6 ± 19.8% | 98.5 ± 36.5% | * (* p < 0.05 for FITC dextran leakage measured after 90 min in [ng/mL/cm^2] in comparison with diabetic milieu (25 mM D-Gluose + VEGF, TNF-α, IL-β)) | 130.4 ± 24.8% |  |
| O=C(O)c1cc(O)c(C(=O)Nc2ccccc2C(=O)O)cc1O [Ia-001a, 4-(2-carboxyphenylaminocarbonyl)-2,5-dihydroxybenzoic acid] |  |  |  |  |  |  | significantly reduced |  |  |  |  |  |  |  |  |  |  |
| O=C(O)c1cc(NC(=O)c2cc(O)c(C(=O)Nc3ccc(O)c(C(=O)O)c3)cc2O)ccc1O [Ic-007a, 5-(4-(3-carboxy-4-hydroxyphenylaminocarbonyl)-2,5-dihydroxybenzamido)-2-hydroxy benzoic acid] | antiproliferative to human primary T cells (30 μM) and fibroblasts (30 μM, 10 μM, 3.3 μM, 1.1 μM) | not cytotoxic | decreased CD40, M-CSF | decreased VCAM-1, sTNFα, MIP-1α, I-TAC, MIG; increased IL-8; modulated IP-10 | 20 | decreased Collagen I, Collagen IV, TIMP-1, tPA, Collagen III, PAI-1, uPAR, bFGF |  | 35% | 71% | 48% | 80% | 75.2 ± 11.1% | 107.3 ± 43.9% | 103.7 ± 15.7% | * (* p < 0.05 for FITC dextran leakage measured after 90 min in [ng/mL/cm^2] in comparison with diabetic milieu (25 mM D-Gluose + VEGF, TNF-α, IL-β)) | 127.1 ± 13.5% | Cell counts, CD4+ lymphocytes, treated mice ([2]; peritoneal exudate cells): 1.03 × 10^4; Cell counts, CD8+ lymphocytes, treated mice ([2]; peritoneal exudate cells): 0.54 × 10^4; Cell counts, Leukocytes (CD45+ cells), treated mice ([2]; peritoneal exudate cells): 31.3 × 10^4; Cell counts, PMNs (CD11b-Ly6G double + cells), treated mice ([2]; peritoneal exudate cells): 2.03 × 10^4; p < 0.05 (ARPE19 permeability versus diabetic milieu) (ARPE-19 cells; No 14-16: compound 50 μg/mL + VEGF, TNF-α): * (* p < 0.05 for FITC dextran leakage measured after 90 min in [ng/mL/cm^2] in comparison with diabetic milieu (25 mM D-Gluose + VEGF, TNF-α, IL-β)) |
